US20020115619A1, “Compositions and methods for treatment of cystic fibrosis” (priority 2000, published 2002)

Experiments:
[1] = cited from earlier work
G551D = molecular target: T1, G551D (Homo sapiens, UniProt P13569, G551D); details: G551D patients; standard deviation 1.2 mV; cited from earlier work
T1 construct: host or cells: nasal epithelium of CF patients carrying G551D (endogenous protein)

rat αβγENaC = assay: Amiloride-sensitive whole-cell current in Xenopus oocytes injected with αβγENaC cRNAs; type: cell-based
Description: (§1) Human WT-CFTR, human ΔF508-CFTR, and mouse α−, β−and γ ENaC cRNAs were prepared using a cRNA synthesis kit (m-MESSAGE mMACHINE, Ambion Inc, Austin, Tex.) according to the manufacturer's protocol. cRNA concentrations were determined spectroscopically. Oocytes obtained from adult female Xenopus laevis (NASCO Fort Atkinson, Wis.) were defolliculated and maintained at 18° C. in modified Barth's saline (88 mM NaCl, 1 mM KCl, 2.4 mM NaHCO3, 15 mM Hepes pH 7.6, 0.3 mM Ca(NO3)2, 0.41 mM CaCl2, 0.82 MM MgSO4, 10 μg/ml sodium penicillin, 10 μg/ml streptomycin sulfate, 100 μg/ml gentamicin sulfate). […]
(§2) Whole-cell current measurements were made 24 to 48 hours after injection using the two-electrode voltage clamp method (GeneClamp 500 amplifier-Axon Instruments, Foster City, Calif.). […] The whole-cell currents were measured by voltage clamping the oocytes in 20 mV steps between −140 mV to +60 mV adjusted for baseline transmembrane potential. Whole cell currents (I) were digitized at 200 Hz during the voltage steps, recorded directly onto a hard disk and analyzed using pClamp 8 software (Axon Instruments, Foster City, Calif.). […]
The difference in whole-cell currents measured in the absence and presence of 10 μM amiloride was used to define the amiloride-sensitive Na^+current that was mediated by ENaC. […] Whole-cell currents were measured at −100 mV. […]

human WT-CFTR = molecular target: T2, human WT-CFTR (Homo sapiens, UniProt P13569); assay: Two-electrode voltage clamp whole-cell current in Xenopus oocytes injected with WT-CFTR cRNA; type: cell-based; details: FIG. 9
T2 construct: expressed in transfected cells; host or cells: Xenopus laevis oocytes, cRNA injection (10 ng)
T2 sequence (P13569 whole entry): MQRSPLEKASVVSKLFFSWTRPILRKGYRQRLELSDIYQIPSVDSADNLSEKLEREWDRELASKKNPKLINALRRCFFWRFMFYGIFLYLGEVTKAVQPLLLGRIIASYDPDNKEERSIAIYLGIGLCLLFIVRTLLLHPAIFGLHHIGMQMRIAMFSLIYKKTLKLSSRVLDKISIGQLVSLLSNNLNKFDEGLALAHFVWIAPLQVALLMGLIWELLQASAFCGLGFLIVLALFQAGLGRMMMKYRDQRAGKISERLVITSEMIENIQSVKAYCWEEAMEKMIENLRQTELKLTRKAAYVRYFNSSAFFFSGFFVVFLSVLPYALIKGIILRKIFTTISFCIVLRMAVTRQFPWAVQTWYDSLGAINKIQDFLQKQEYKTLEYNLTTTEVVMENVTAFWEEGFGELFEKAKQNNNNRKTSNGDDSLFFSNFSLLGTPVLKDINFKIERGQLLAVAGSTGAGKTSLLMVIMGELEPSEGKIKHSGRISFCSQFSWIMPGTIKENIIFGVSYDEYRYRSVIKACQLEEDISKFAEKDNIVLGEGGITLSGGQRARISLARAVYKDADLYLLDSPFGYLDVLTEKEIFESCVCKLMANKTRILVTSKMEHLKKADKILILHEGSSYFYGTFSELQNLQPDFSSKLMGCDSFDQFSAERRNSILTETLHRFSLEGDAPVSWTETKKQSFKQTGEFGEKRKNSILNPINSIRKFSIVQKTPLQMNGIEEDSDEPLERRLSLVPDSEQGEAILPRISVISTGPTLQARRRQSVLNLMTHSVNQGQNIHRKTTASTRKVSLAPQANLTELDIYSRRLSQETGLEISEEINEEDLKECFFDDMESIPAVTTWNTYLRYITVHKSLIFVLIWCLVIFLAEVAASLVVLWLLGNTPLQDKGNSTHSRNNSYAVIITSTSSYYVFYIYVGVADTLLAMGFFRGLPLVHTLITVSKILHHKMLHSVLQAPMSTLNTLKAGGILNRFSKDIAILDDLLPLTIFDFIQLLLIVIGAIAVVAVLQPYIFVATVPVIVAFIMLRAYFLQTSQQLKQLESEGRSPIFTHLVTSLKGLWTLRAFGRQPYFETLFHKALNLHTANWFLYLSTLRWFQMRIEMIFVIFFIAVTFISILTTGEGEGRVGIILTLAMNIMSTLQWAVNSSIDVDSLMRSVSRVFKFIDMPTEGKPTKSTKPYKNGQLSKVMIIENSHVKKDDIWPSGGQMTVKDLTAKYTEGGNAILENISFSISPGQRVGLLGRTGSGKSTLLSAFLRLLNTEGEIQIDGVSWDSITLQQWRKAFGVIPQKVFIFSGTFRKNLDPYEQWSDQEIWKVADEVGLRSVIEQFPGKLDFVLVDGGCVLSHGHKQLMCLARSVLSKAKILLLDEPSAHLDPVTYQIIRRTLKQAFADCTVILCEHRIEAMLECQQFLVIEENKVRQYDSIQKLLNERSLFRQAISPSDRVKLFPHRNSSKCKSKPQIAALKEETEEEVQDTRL
Description: as §1, §2
(§3) The difference in whole-cell currents measured in the absence and presence of 10 μM amiloride was used to define the amiloride-sensitive Na^+current that was mediated by ENaC. […]

ΔF508-CFTR [2] = molecular target: T3, ΔF508-CFTR (Homo sapiens, UniProt P13569, DEL508-508); assay: Two-electrode voltage clamp whole-cell current in Xenopus oocytes injected with ΔF508-CFTR cRNA; type: cell-based; parameters: expressed in transfected cells; host or cells: Xenopus laevis oocytes, cRNA injection (10 ng); details: −100 mV, FIG. 8
T3 sequence (P13569 with tags, fused parts or gaps DEL508-508): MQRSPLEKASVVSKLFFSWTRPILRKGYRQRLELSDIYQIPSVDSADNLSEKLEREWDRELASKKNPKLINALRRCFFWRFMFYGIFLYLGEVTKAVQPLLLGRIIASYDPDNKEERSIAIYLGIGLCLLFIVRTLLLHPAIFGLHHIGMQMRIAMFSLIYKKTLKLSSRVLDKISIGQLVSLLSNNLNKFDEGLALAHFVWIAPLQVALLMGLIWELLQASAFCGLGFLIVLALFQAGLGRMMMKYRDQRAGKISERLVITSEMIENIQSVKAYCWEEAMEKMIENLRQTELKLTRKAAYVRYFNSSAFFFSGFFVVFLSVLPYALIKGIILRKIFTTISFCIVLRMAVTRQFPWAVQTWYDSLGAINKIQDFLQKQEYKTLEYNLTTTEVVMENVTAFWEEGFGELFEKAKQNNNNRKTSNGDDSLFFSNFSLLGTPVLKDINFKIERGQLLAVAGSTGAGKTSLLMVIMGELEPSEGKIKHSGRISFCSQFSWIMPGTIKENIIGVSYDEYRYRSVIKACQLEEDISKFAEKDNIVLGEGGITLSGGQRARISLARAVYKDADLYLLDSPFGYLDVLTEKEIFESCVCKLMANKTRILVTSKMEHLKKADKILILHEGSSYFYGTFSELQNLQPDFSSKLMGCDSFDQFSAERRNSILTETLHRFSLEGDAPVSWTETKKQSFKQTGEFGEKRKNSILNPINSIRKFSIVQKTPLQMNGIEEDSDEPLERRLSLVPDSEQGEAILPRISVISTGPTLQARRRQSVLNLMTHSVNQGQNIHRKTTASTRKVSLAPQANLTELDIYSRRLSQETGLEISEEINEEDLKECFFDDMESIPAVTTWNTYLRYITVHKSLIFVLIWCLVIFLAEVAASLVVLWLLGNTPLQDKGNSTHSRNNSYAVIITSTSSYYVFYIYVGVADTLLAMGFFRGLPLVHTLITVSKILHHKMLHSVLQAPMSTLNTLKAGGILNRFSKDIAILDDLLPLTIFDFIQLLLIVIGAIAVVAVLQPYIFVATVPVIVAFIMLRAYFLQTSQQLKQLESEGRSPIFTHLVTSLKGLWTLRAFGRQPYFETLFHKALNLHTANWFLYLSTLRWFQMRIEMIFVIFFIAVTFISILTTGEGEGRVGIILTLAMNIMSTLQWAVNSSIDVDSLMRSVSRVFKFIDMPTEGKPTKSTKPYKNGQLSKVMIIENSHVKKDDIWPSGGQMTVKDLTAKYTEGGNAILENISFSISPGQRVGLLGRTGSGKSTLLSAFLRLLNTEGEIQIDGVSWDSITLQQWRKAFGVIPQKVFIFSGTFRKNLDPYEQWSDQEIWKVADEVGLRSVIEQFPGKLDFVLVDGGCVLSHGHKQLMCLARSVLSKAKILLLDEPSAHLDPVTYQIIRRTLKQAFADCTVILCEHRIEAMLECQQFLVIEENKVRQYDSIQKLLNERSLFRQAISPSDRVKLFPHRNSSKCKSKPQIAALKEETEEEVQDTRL
Description: as §1, §2, §3

ΔF508-CFTR [3] = molecular target: T3, ΔF508-CFTR; details: cited from earlier work
[4] = 16 milligrams per kilogram per day, oral; cited from earlier work

T1 sequence (P13569 whole entry G551D): as the sequence (P13569 whole entry) above, with G551D counted along it

O=C(O)CCCc1ccccc1 [4PBA, 4-phenylbutyrate]
commonly reported side effects in chronic therapy ([1]; FDA approved use, urea cycle disorders, 20 grams per day oral): mild stomach upset and an occasional bad taste in the mouth
side effects related to 4PBA therapy during trial ([1]; pilot CF trial, 19 grams per day, one week): no significant side effects

O=c1c(-c2ccc(O)cc2)coc2cc(O)cc(O)c12 [genistein]
average repolarization of the NPD during genistein perfusion (G551D): 2.4 mV
effect on amiloride-sensitive current of genistein alone or added before forskolin/IBMX (rat αβγENaC; ENaC alone, unpublished data): decreased
WT-CFTR whole-cell current after forskolin/IBMX plus genistein (human WT-CFTR; 10 μM forskolin/100 μM IBMX/50 μM genistein): 2.57±0.45 μA
fold increase of forskolin/IBMX-stimulated WT-CFTR current by addition of genistein (human WT-CFTR; 50 μM genistein, −100 mV): 2 fold
ΔF508-CFTR-mediated whole-cell current after forskolin/IBMX/genistein (ΔF508-CFTR [2]; 10 μM forskolin/100 μM IBMX/50 μM genistein, ΔF508-CFTR alone): 1.82±0.4 μA
fold increase of forskolin/IBMX-stimulated ΔF508-CFTR-mediated current by addition of genistein (ΔF508-CFTR [2]; 50 μM genistein added to 10 μM forskolin/100 μM IBMX): 5 fold
enhancement of cAMP-dependent activation of ΔF508-CFTR (ΔF508-CFTR [3]): ≤ 20 fold
activation of ΔF508-CFTR by the compound itself (ΔF508-CFTR [3]; without cAMP stimulation): does not activate ΔF508-CFTR by itself
side effects in Phase I clinical trials [4]: no side effects noted

N=C(N)NC(=O)c1nc(Cl)c(N)nc1N [amiloride]
inhibition of whole-cell current by amiloride (rat αβγENaC; 10 μM amiloride, oocytes injected with αβγENaC): A large fraction of the current can be inhibited
